Measurements as given in patent publication US11554151B2, “Composition containing Perilla frutescens fermented extract for prevention, alleviation, or treatment of sleep disorder” (AJOU UNIVERSITY INDUSTRY-ACADEMIC COOPERATION FOUNDATION, priority 2017, dated 2023).

Test system: ICR mice
Experiment: Pentobarbital-induced sleep test (sleep latency and total sleeping time)
Format: in vivo
Conditions: Example 2-1; positive control, 1 mg/kg oral, 30 min before pentobarbital 45 mg/kg i.p.
Procedure: The sleep improvement effects of the Perilla frutescens fermented extract and conventionally sold sedatives were intended to be confirmed from comparison of sleep latency and total sleeping time.
Specifically, 0.9% physiological saline, 10 mg/kg of the Perilla frutescens extract (Perilla-W) or fermented extract thereof (Perilla-B) prepared in [Example 1], and 1 mg/kg of diazepam (Myung In Pharm. Co., Ltd.) were each orally administered to ICR mice (OrientBio). 30 minutes after the administration of the test materials, 45 mg/kg of a nerve stabilizer pentobarbital (HANLIM PHARM. Co., Ltd.) was intraperitoneally administered to induce sleep. After the administration of pentobarbital, the time required to go into deep sleep (sleep latency) and the total sleep maintenance time (total sleeping time) were measured for each test material administration group. Physiological saline and diazepam were used as a control and a positive control, respectively.
Specifically, sleep latency and total sleeping time ere measured in the same manner as in Example <2-1> using 0.9% physiological saline and 10 mg/kg of the Perilla frutescens extract (Perilla-W) or fermented extract thereof (Perilla-B, Perilla-L, and Perilla-S) prepared in [Example 1].

## CN1C(=O)CN=C(c2ccccc2)c2cc(Cl)ccc21 [diazepam]
  sleep latency: 220 s
